Experimental findings from patent US20040072770A1, “Methods for specifically inhibiting histone deacetylase-7 and 8” (priority 2002, published 2004) are described below.

Experiment [1] relates to colon cancer cells HCT116. Nature of the experiment: MTT assay, HCT116. The format is cell-based, human. The following applies: Homo sapiens, HCT-116; 72 hours. The protocol: (§1) Effects of HDAC isotype-specific small molecule inhibitors on growth inhibition of various human cancer cells (from ATCC) in vitro were determined by MTT assays. Briefly, cells seeded in 96-well plates were incubated for 72 hours at 37° C. in a 5% CO2 incubator. MTT (Sigma) was added at a final concentration of 0.5 mg/ml and incubated with the cells for 4 hours before an equal volume of solubilization buffer (50% N,N-dimethylformamide, 20% SDS, pH 4.7) was added onto cultured cells. After overnight incubation, solubilized dye was quantified by colorimetric reading at […] using a reference at 630 nM. OD values were converted to cell numbers according to a standard growth curve of the relevant cell line. The concentration which reduces cell numbers to 50% of those of DMSO-treated cells is determined as MTT IC50. In Table 4, IC50s of several HDAC7 or HDAC8 inhibitors in MTT assays in various human cancer cell lines were listed. They include colon cancer cells HCT116 and SW48, lung cancer cells A549 and H446, breast cancer cells MCF-7 and MDAmb231, a prostate cancer cell line Du145 and a bladder cancer cell line T24.
(In general: Formazan colour is commonly taken as a measure of viable cells.)

Experiment [2] relates to colon carcinoma cells HCT116 tumors. Nature of the experiment: Tumor growth in a mouse model, HCT116. Particulars: intraperitoneal, BALB/c nude mice, vs vehicle-treated. In kind it is in vivo. Here is the method:
(§2) Female BALB/c nude mice are obtained from Charles River Laboratories (Charles River, N.Y.) and used at age 8-10 weeks. Human tumor cells (2×10^6, colon carcinoma cells HCT116 or SW48, lung carcinoma cells A549, pancreatic carcinoma Panc-1, ovarian carcinoma cells ES2, or prostate carcinoma cells Du145) are injected subcutaneously in the animal's flank and allowed to form solid tumors. Tumor fragments are serially passaged a minimum of three times, then approximately 30 mg tumor fragments are implanted subcutaneously through a small surgical incision under general anaesthesia. Small molecule inhibitor administration by intraperotineal or oral administration was initiated when the tumors reached a volume of 100 mm^3. For intraperotineal administration, small molecule inhibitors of HDAC-7, HDAC-8 or both, or in combination with small molecule inhibitors of HDAC-1 (20-60 mg/kg body weight/day) are dissolved in 100% DMSO and administered daily by injection. For oral administration, small molecule inhibitors of HDAC (60 mg/kg body weight) are dissolved in saline acidified with 0.2 N HCl. Tumor volumes are monitored twice weekly up to 20 days. Each experimental group contains at least 6-8 animals. Percentage inhibition is calculated using volume of tumor from vehicle-treated mice as controls. Shown in Table 4, inhibition of HDAC7 or HDAC8 in combination with HDAC1 leads to inhibition of growth of various human tumors in vivo.

The next experiment deals with lung cancer cells H446. Nature of the experiment: MTT assay, H446. The format is cell-based. The following applies: Homo sapiens, NCI-H446; 72 hours; read-out: MTT IC50 H 446. Here is the method:
as §1

A further experiment addresses T1, HDAC-8 (Homo sapiens, UniProt Q9BY41).
T1 sequence (Q9BY41 1-377): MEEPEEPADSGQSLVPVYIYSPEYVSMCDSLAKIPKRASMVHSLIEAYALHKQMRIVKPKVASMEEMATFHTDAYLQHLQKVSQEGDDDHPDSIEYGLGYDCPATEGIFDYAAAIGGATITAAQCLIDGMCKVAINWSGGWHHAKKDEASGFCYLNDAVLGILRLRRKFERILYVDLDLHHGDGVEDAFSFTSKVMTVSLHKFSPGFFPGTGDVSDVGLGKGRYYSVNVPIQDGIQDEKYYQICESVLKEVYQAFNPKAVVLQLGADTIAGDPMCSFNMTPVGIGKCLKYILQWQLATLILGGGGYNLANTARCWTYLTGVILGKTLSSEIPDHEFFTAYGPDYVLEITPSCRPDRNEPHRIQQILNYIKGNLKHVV
Nature of the experiment: Enzyme inhibitory activity, HD8. In kind it is biochemical. The following applies: read-out: IC50 HD 8.

In a further experiment the target is T2, HDAC-6 (Homo sapiens, UniProt Q9UBN7).
T2 sequence (Q9UBN7 1-1215): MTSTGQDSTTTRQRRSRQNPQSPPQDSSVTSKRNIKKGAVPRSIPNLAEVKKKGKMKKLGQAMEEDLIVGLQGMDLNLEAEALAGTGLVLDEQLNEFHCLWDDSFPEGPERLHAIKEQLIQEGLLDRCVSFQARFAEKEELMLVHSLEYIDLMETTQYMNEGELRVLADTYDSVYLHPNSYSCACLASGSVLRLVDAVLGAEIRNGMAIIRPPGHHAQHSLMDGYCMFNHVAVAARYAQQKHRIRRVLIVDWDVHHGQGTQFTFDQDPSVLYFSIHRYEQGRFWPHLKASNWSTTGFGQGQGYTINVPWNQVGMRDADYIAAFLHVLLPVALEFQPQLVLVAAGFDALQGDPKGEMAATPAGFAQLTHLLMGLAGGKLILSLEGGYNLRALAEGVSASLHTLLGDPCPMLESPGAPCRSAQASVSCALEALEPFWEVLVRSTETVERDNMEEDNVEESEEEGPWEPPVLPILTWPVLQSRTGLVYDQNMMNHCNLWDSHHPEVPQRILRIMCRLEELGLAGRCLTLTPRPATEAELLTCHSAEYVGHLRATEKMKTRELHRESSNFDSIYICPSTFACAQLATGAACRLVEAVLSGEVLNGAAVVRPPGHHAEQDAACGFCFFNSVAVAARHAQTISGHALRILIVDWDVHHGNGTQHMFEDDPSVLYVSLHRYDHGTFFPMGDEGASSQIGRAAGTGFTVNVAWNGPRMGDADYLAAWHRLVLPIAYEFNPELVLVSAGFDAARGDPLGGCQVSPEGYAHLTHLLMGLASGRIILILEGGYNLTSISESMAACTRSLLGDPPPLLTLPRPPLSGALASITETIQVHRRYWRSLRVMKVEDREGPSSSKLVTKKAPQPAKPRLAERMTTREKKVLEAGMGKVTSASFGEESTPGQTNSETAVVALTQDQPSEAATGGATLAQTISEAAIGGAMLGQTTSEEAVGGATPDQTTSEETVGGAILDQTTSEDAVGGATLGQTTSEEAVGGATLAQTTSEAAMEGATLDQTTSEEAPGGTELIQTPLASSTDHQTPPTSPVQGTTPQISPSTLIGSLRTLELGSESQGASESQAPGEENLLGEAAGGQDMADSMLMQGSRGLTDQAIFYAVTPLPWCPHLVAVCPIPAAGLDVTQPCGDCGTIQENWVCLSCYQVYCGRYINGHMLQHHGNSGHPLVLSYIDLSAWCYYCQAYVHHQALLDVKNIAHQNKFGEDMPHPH
Nature of the experiment: Enzyme inhibitory activity, HD6. The format is biochemical. The following applies: read-out: IC50 HD 6.

Experiment [3] relates to lung carcinoma cells A549 tumors. Nature of the experiment: Tumor growth in a mouse model, A549. In kind it is in vivo. The following applies: BALB/c nude mice, vs vehicle-treated. Here is the method: as §2, with “Shown in Table 4, inhibition of HDAC7 or HDAC8 in combination with HDAC1 leads to inhibition of growth of various human tumors in vivo.” left out
Setting [4] is: (20,I): 20 mg/kg body weight/day.

Consider `Cc1ccc(S(=O)(=O)Nc2ccc(/C=C/C(=O)Nc3ccccc3N)cc2)cc1` [Compound 5, N-(2-Aminophenyl)-3-[4-(4-methylbenzenesulfonylamino)-phenyl]-acrylamide], for which the IC50 (in general, the concentration that gives 50% inhibition) in experiment [1] was 4000 nM; in the experiment with lung cancer cells H446 it was 1000 nM; on HDAC-8 it was greater than 50000 nM; at HDAC-6, greater than 50000 nM. In addition, the entries for the “% of Inhibition of Tumor Growth in Vivo HCT116” value (shortened to “% of Inhibition … in Vivo HCT116”) in experiment [2] (setting [4]) and in experiment [2] ((40,I): 40 mg/kg body weight/day) were 48(20,I) % and 55(40,I) %, respectively.
As to `Nc1ccccc1NC(=O)c1ccc(CSc2nc3ccccc3[nH]2)cc1` [Compound 16, N-(2-Amino-phenyl)-4-(1H-benzimidazol-2-ylsulfanylmethyl)-benzamide], the IC50 in experiment [1] is 200 nM; in the experiment on lung cancer cells H446, 1000 nM; on HDAC-6 it was greater than 50000 nM. The “% of Inhibition … in Vivo HCT116” value in experiment [2] (setting [4]) was 61(20,I) %.
With `COc1ccc(NCc2ccc(C(=O)Nc3ccccc3N)cc2)cc1OC` [Compound 17, N-(2-Aminophenyl)-4-[(3,4-dimethoxyphenylamino)-methyl]-benzamide], the concentration for half-maximal inhibition (IC50) in experiment [1] is 400 nM; with lung cancer cells H446 it was 900 nM; on HDAC-8, greater than 50000 nM; on HDAC-6, greater than 50000 nM. The “% of Inhibition … in Vivo HCT116” value in experiment [2] (setting [4]) is on record as 77(20,I) %. The “% of Inhibition of Tumor Growth in Vivo A 549” value in experiment [3] ((5,0,O): oral) was 67(5,0,O) %.
On to `COc1ccc(-c2ccnc(NCc3ccc(C(=O)Nc4ccccc4N)cc3)n2)cc1OC` [Compound 21, N-(2-Amino-phenyl)-4-{[4-(3,4-dimethoxy-phenyl)-pyrimidin-2-ylamino]-methyl}-benzamide], for which the IC50 in experiment [1] is 100 nM; in the experiment on lung cancer cells H446 it was 300 nM; at HDAC-8, greater than 50000 nM; at HDAC-6 it was greater than 50000 nM. Also, in experiment [3] ((30,I): 30 mg/kg body weight/day, intraperitoneal), the “% of Inhibition of Tumor Growth in Vivo A 549” value is >50(30,I) %.
